According to PubChem BioAssay AID2060624 (Molecular Pharmacology Branch, DTP, NCI, 2025):

System: 217524-143-R1-J4-PDC spheroids with HUVEC/MSC, viability
Assay: Anticancer human tumor 217524-143-R1-J4-PDC patient-derived pancreatic carcinoma cell line growth inhibition [CLK]
Conditions: for IC50: curve of first compound; for viability, T/C: stronger effect = lower value
In short: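 Patient-derived tumor cells grown as complex spheroids with HUVEC endothelial cells and mesenchymal stem cells, treated with drug combinations. Concentrations descend in half-log steps from near clinical Cmax, or from 10 microM if Cmax unknown.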

[1] = second compound 0.0316 µM, first compound 0.0316 µM
[2] = second compound 0.0316 µM, first compound 0.1 µM
[3] = second compound 0.0316 µM, first compound 0.316 µM
[4] = second compound 0.0316 µM, first compound 1 µM
[5] = second compound 0.0316 µM, first compound 3.16 µM
[6] = second compound 0.0316 µM, first compound 10 µM
[7] = second compound 0.1 µM, first compound 0.0316 µM
[8] = second compound 0.1 µM, first compound 0.1 µM
[9] = second compound 0.1 µM, first compound 0.316 µM
[10] = second compound 0.1 µM, first compound 1 µM
[11] = second compound 0.1 µM, first compound 3.16 µM
[12] = second compound 0.1 µM, first compound 10 µM
[13] = second compound 0.316 µM, first compound 0.0316 µM
[14] = second compound 0.316 µM, first compound 0.1 µM
[15] = second compound 0.316 µM, first compound 0.316 µM
[16] = second compound 0.316 µM, first compound 1 µM
[17] = second compound 0.316 µM, first compound 3.16 µM
[18] = second compound 0.316 µM, first compound 10 µM
[19] = second compound 1 µM, first compound 0.0316 µM
[20] = second compound 1 µM, first compound 0.1 µM
[21] = second compound 1 µM, first compound 0.316 µM
[22] = second compound 1 µM, first compound 1 µM
[23] = second compound 1 µM, first compound 3.16 µM
[24] = second compound 1 µM, first compound 10 µM
[25] = second compound 3.16 µM, first compound 0.0316 µM
[26] = second compound 3.16 µM, first compound 0.1 µM
[27] = second compound 3.16 µM, first compound 0.316 µM
[28] = second compound 3.16 µM, first compound 1 µM
[29] = second compound 3.16 µM, first compound 3.16 µM
[30] = second compound 3.16 µM, first compound 10 µM
[31] = second compound 10 µM, first compound 0.0316 µM
[32] = second compound 10 µM, first compound 0.1 µM
[33] = second compound 10 µM, first compound 0.316 µM
[34] = second compound 10 µM, first compound 1 µM
[35] = second compound 10 µM, first compound 3.16 µM
[36] = second compound 10 µM, first compound 10 µM
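Note: spheroids exposed to agents for seven days before reading.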
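Throughout, for viability, T/C: 100% = DMSO vehicle control viability.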

## CC1(C)CCC(CN2CCN(c3ccc(C(=O)NS(=O)(=O)c4ccc(NCC5CCOCC5)c([N+](=O)[O-])c4)c(Oc4cnc5[nH]ccc5c4)c3)CC2)=C(c2ccc(Cl)cc2)C1 + CNC(=O)c1ccc(Nc2nc(OC3CCCC3)c3c(-c4ccc5nc(C)oc5c4)c[nH]c3n2)c(OC)c1
Second compound 0.0316 µM
  IC50: > 10000 nM
Second compound 0.1 µM
  IC50: < 31.6 nM
Second compound 0.316 µM
  IC50: < 31.6 nM
Second compound 1 µM
  IC50: < 31.6 nM
Second compound 3.16 µM
  IC50: < 31.6 nM
Second compound 10 µM
  IC50: < 31.6 nM
[1]
  viability, T/C: 86.2%
[2]
  viability, T/C: 87.7%
[3]
  viability, T/C: 81.2%
[4]
  viability, T/C: 79%
[5]
  viability, T/C: 88.5%
[6]
  viability, T/C: 79.3%
[7]
  viability, T/C: 42.1%
[8]
  viability, T/C: 45%
[9]
  viability, T/C: 38.1%
[10]
  viability, T/C: 46.1%
[11]
  viability, T/C: 39.1%
[12]
  viability, T/C: 37.7%
[13]
  viability, T/C: 34.1%
[14]
  viability, T/C: 40.7%
[15]
  viability, T/C: 38.7%
[16]
  viability, T/C: 38.2%
[17]
  viability, T/C: 36.9%
[18]
  viability, T/C: 37.1%
[19]
  viability, T/C: 24.4%
[20]
  viability, T/C: 29.3%
[21]
  viability, T/C: 31.6%
[22]
  viability, T/C: 27.4%
[23]
  viability, T/C: 31.4%
[24]
  viability, T/C: 25.9%
[25]
  viability, T/C: 27.4%
[26]
  viability, T/C: 28.9%
[27]
  viability, T/C: 24.1%
[28]
  viability, T/C: 27.2%
[29]
  viability, T/C: 29.1%
[30]
  viability, T/C: 22.3%
[31]
  viability, T/C: 23.1%
[32]
  viability, T/C: 25.7%
[33]
  viability, T/C: 24.9%
[34]
  viability, T/C: 26.4%
[35]
  viability, T/C: 26.7%
[36]
  viability, T/C: 24.9%

## CC1COCCN1c1cc(C2(S(C)(=N)=O)CC2)nc(-c2ccnc3[nH]ccc23)n1 (centres undefined) + CNC(=O)c1ccc(Nc2nc(OC3CCCC3)c3c(-c4ccc5nc(C)oc5c4)c[nH]c3n2)c(OC)c1
Second compound 0.0316 µM
  IC50: 1970 nM
Second compound 0.1 µM
  IC50: < 31.6 nM
Second compound 0.316 µM
  IC50: < 31.6 nM
Second compound 1 µM
  IC50: < 31.6 nM
Second compound 3.16 µM
  IC50: < 31.6 nM
Second compound 10 µM
  IC50: < 31.6 nM
[1]
  viability, T/C: 85.7%
[2]
  viability, T/C: 93.5%
[3]
  viability, T/C: 71.4%
[4]
  viability, T/C: 76.3%
[5]
  viability, T/C: 31.8%
[6]
  viability, T/C: 22.5%
[7]
  viability, T/C: 36.8%
[8]
  viability, T/C: 43.5%
[9]
  viability, T/C: 37.8%
[10]
  viability, T/C: 29.2%
[11]
  viability, T/C: 26.5%
[12]
  viability, T/C: 19.7%
[13]
  viability, T/C: 42.2%
[14]
  viability, T/C: 32.4%
[15]
  viability, T/C: 34.4%
[16]
  viability, T/C: 28.1%
[17]
  viability, T/C: 20.1%
[18]
  viability, T/C: 15.1%
[19]
  viability, T/C: 29.9%
[20]
  viability, T/C: 27.7%
[21]
  viability, T/C: 28.9%
[22]
  viability, T/C: 18.1%
[23]
  viability, T/C: 16.3%
[24]
  viability, T/C: 12.3%
[25]
  viability, T/C: 26.7%
[26]
  viability, T/C: 26%
[27]
  viability, T/C: 24.7%
[28]
  viability, T/C: 20.2%
[29]
  viability, T/C: 10.9%
[30]
  viability, T/C: 9.73%
[31]
  viability, T/C: 28.1%
[32]
  viability, T/C: 26.4%
[33]
  viability, T/C: 21.7%
[34]
  viability, T/C: 17.6%
[35]
  viability, T/C: 12.9%
[36]
  viability, T/C: 8.77%
